These results are taken from ChEMBL document CHEMBL4043105, “Design and synthesis of potent and orally active GPR4 antagonists with modulatory effects on nociception, inflammation, and angiogenesis” (Bioorg Med Chem, 2017).

Each structure is given as a SMILES string.

Broadly, the bioavailability is the share of a dose that reaches the circulation, judged against a reference dose that is usually intravenous. Read a low bioavailability as little systemic uptake. Usually half-life stands for how long it takes for the measured level to halve. Higher therefore signals slow loss. A word on the clearance: it is the volume of plasma or blood freed of the substance per unit of time. Low readings indicate a low capacity for elimination, high ones a high capacity for elimination.

The species named for data set [1] is Rattus norvegicus. Conditions: in vivo, po, 3 mg/kg.
The species entered for data set [2] is Rattus norvegicus. Conditions: in vivo, po, 3 mg/kg. This is another data set of the same source.
The nature of data set [3]: in vivo. As to conditions: Sprague-Dawley, rat, po, 3 mg/kg.
Data set [4] in a line: in vivo. As to conditions: Sprague-Dawley, rat, iv, 1 mg/kg.
Data set [5] is described as follows: in vivo. Conditions: Sprague-Dawley, rat, iv, 1 mg/kg. This is another data set of the same source.

For the compound `CCc1nc2c(C)cc(C)nc2n1Cc1ccc(/C=C/CN2CCN(C(C)C)CC2)cc1`, in the data set listed under Rattus norvegicus [1], the Cmax/dose was found to be 193 nM. Moreover, the AUC/dose in the data set filed under Rattus norvegicus [2] turned out to be 2196 µg·min/mL. For the same compound, the bioavailability in “in vivo [3]” is 86%. In the data set “in vivo [4]”, this compound gave a half-life of 5.6 h. In the data set “in vivo [5]”, this compound had a clearance of 15 mL/min/kg.
